Laboratory results published in paper PMC12246642 (iScience, 2025).

Legend:
SARS-CoV-2 Mpro [1] = target: T1, SARS-CoV-2 Mpro (Severe acute respiratory syndrome coronavirus 2, UniProt P0DTD1); assay: biochemical; type: biochemical; conditions: aldehyde hydration penalty taken into account
SARS-CoV-2 Mpro [2] = target: T1, SARS-CoV-2 Mpro; assay: Covalent bond (adduct) formation kinetics by IR-MALDESI intact protein MS; type: binding; conditions: for covalent complex formation in the titration of compound versus Mpro: up to 5-fold molar excess of compound, unquenched condition for compound 5
[3] = target: His tag SARS-CoV-2 3CLpro (1-306) F305A, Q306A (Severe acute respiratory syndrome coronavirus 2, UniProt P0DTD1, F3568A/Q3569A); type: binding

| Structure (SMILES) | likely affinity accounting for the hydration penalty (SARS-CoV-2 Mpro [1]) [pM] | time for which covalent binding persists after chase (reversibility of adduct formation) (SARS-CoV-2 Mpro [2]) | covalent complex formation in the titration of compound versus Mpro (SARS-CoV-2 Mpro [2]) | Kd [3] | T1/2 [3] |
| --- | --- | --- | --- | --- | --- |
| O=C[C@H](C[C@@H]1CCNC1=O)NC(=O)[C@H](CC1CC1)NC(=O)OCc1ccccc1 [Compound 2, benzyl ((S)-3-cyclopropyl-1-oxo-1-(((S)-1-oxo-3-((S)-2-oxopyrrolidin-3-yl)propan-2-yl)amino)propan-2-yl)carbamate] | ~10 | – | – | – | – |
| COc1cccc2[nH]c(C(=O)N[C@@H](CC3CC3)C(=O)N[C@H](C#N)C[C@@H]3CCNC3=O)cc12 [Compound 5, N-((S)-1-(((S)-1-cyano-2-((S)-2-oxopyrrolidin-3-yl)ethyl)amino)-3-cyclopropyl-1-oxopropan-2-yl)-4-methoxy-1H-indole-2-carboxamide] | – | ≤ 1 h | ~100% | – | – |
| COc1cccc2[nH]c(C(=O)N[C@@H](CC3CC3)C(=O)N[C@H](C=O)C[C@@H]3CCNC3=O)cc12 [Compound 1, N-((S)-3-cyclopropyl-1-oxo-1-(((S)-1-oxo-3-((S)-2-oxopyrrolidin-3-yl)propan-2-yl)amino)propan-2-yl)-4-methoxy-1H-indole-2-carboxamide] | ~10 | at least 4 h | did not reach saturation | – | – |
| CS(=O)(=O)CC[C@@H](C#N)NC(=O)[C@H](CC1CC1)NC(=O)OCc1ccccc1 [Compound 8, benzyl ((S)-1-(((S)-1-cyano-3-(methylsulfonyl)propyl)amino)-3-cyclopropyl-1-oxopropan-2-yl)carbamate] | – | – | – | No Activity | No activity |
